“Also recorded” adds a separate entry of the source.
What was measured:
Type in all cases: cell-based, human
CHRNA7 [1] = experiment: Western blot of CHRNA7 (56 kDa band) in TPA differentiated THP-1 cells; conditions: for CHRNA7 (56 kDa protein) expression, conclusion in words: Table 1 / FIG. 4, both experiments
Protocol: The cellular samples were tested for the presence of the α7 subtype of the nicotinic acetylcholine receptor (nAChR) by Western blot analysis on THP-1 cells that were incubated with and without Abeta1-42 and with and without DHA. The purpose of this was to show monocytic membrane expression of nAChR and to explore altered regulation of this receptor in response to DHA stimulation.
The THP-1 cells were seeded in 6-well plates with 2 mL per well at a concentration of 830 000 cells/mL (experiment 1) or 860 000 cells/ml (experiment 2), and differentiated using 100 nM TPA (12-O-Tetradecanoylphorbol-13-Acetate) for 24 hours. For the experiments, DHA was added to give a concentration of 100 uM (experiment 1) or 10 uM and 100 uM (experiment 2), and Aβ42 was added at a final concentration of 2.5 ng/ul.
The cells were incubated overnight (18 hours). Each DHA experiment had parallels of cells not incubated with DHA. After incubation the cells were kept cold, scraped loose and transferred to 15-ml tubes. Cells were washed twice with cold PBS before resuspended in 100 ul PBS and transferred to an Eppendorf tube. The cells were lysed through five freeze thaw cycles, and total protein in each sample was determined by the BCA protein assay. Samples were stored at −80° C. upon analysis.
Western blot analysis was performed cat no 21379-1-AP, Proteintech, using 1:1000 using dilution. The secondary antibody was a goat anti-rabbit IgG-HRP (cat no 4030-05, Southern Biotech) diluted 1:2000. Solvents for dilutions were as described below.
Samples were dissolved in 4× Laemmli buffer w/ b-ME (BioRad and, respectively) denatured at 95° C. for 5 min, and a quantity of 12 μg protein/sample/well was loaded to the gel. A volume of 10 uL of Precision Plus protein Dual Xtra Color Standards (BioRad) was used for molecular weight estimation. The samples were resolved in 8-16% gradient SDS-PAGE (Criterion TGX precast gels, BioRad) and immunoblotted onto PVDF membranes (GE Healthcare). Membranes were blocked in 5% non-fat dried milk in 1× Tris Buffered Saline containing 0.1% Tween20 (1×TBS-T) (BioRad) at room temperature for 1 h and incubated overnight at 4° C. with primary antibodies in 1×TBS-T with 1% non-fat dried milk. After washing, the membranes were incubated with secondary antibody in 5% non-fat dried milk in 1×TBS-T for 1 h at room temperature. The blots were visualized by ECL Plus Western blotting detection system (GE Healthcare) according to the supplier's instructions. Membranes were visualized on the LAS-3000 mini (Fujifilm Corporation) and band intensities were quantified using MultiGauge analysis software (Fujifilm Corporation).
Bands presented are at the predicted MW of the nAChR (56 kDa).
(§1) DHA: Docosahexaenoic acid, Aβ1-40 peptides: the conventional amyloid beta peptide containing 40 amino acids.

CHRNA7 [2] = experiment: Quantitative PCR of CHRNA7 transcription in THP-1 monocyte cultures; conditions: for CHRNA7 ("N") transcription relative to TPA-treated unstimulated condition / N/M ratio (CHRNA7/CHRFAM7A transcription): FIG. 7; for CHRNA7 ("N") transcription relative to TPA-treated unstimulated condition: overnight; for CHRNA7 transcription (quantitative PCR): FIG. 6
Protocol: (§2) The human acute monocytic leukemia cell line THP-1 (ATCC TIB-202, ATCC, US) was cultured in RPMI 1640 with GlutaMax (Gibco, Life Technologies, UK) supplemented with 10% fetal bovine serum (FBS), (Gibco, Life Technologies, UK) and 1% Antibiotic/Antimycotic (Gibco, Life Technologies, UK) at 37° C. and 5% CO2.
(§3) 1,6 million cells were seeded in each well in 6-well plates and differentiated to macrophages by a 48 h treatment of 100 nM TPA (12-O-tetradecanoylphorbol-13-acetate), (Cell Signaling Technology, US). Cells were treated with 100 μM Docosahexaenoic acid (DHA), (Sigma Aldrich, Germany), 10 ng/ul Amyloid beta 1-40 (Aβ), (ApexBio, US), 10 μM PNU-120596, (Sigma Aldrich, Germany), 40 μM Galanthamine hydrobromide, (Sigma Aldrich, Germany) and combinations overnight (approximately 20 h).
(§4) Total RNA was isolated with the RNeasy Plus Mini kit (Qiagen) using genomic DNA eliminator columns. THP-1 cells were lysed directly in the wells using 350 μl RLT Plus according to the protocol and stored at −80° C. The frozen lysate was incubated at 37° C. in a water bath until completely thawed and homogenized using QIAshredder (Qiagen) spin columns. RNA was eluted in 30 μl RNase free water and the quantity assessed using the NanoDrop ND-1000 Spectrophotometer (NanoDrop Technologies).
(§5) 1 μg total RNA was reverse transcribed using the QuantiTect cDNA Reverse Transcription Kit (Qiagen). Due to low CHRNA7 expression (Cq values>38, Table 2), we increased RNA input to 2 μg, changed the reverse transcription kit to High Capacity Reverse Transcription Kit (Life Technologies AS) and the cDNA was preamplified using TaqMan PreAmp Master Mix (Life Technologies AS), running 18 cycles and diluted 1:20 (FIG. 7). We then obtained Cq values<27 (average 25,4) for CHRNA7 and <20 (average 18,6 for CHRFAM7A). Absolute quantification was run using CHRFAM7A and CHRNA7 synthetic oligonucleotides standards (GeneArt, Life Technologies AS). 2.5 ul cDNA diluted 1:20 after preamplification was applied per qPCR reaction using TaqMan gene expression assays CHRFAM7A (Hs04189909_m1) and CHRNA7 (Hs01063372_m1) (Thermo Fisher) and TaqMan Gene expression Master Mix (Life Technologies AS) in a total volume of 10 μl and run in triplicates on Quant Studio 7 (Applied Biosystems).

CHRFAM7A [3] = experiment: Quantitative PCR of CHRFAM7A transcription in THP-1 monocyte cultures; conditions: for CHRFAM7A ("M") transcription relative to TPA-treated unstimulated condition: FIG. 7, overnight; for CHRFAM7A transcription (quantitative PCR): FIG. 6
Protocol: as §2, §3, §4, §5

CHRNA7 [4] = experiment: Western blot of CHRNA7 (56 kDa band) in TPA differentiated THP-1 cells; conditions: FIG. 5; co-stimulation with DHA and Aβ1-40 peptide, compared with DHA alone
THP-1 cells = experiment: IP LC-MS of Abeta-40 degradation in monocytic THP-1 cells
Protocol: Firstly, a cell model was used to study the effect of the omega-3 fatty acid DHA on degradation of amyloid beta. Here, the THP-1 cells were incubated with and without DHA (1 μM), and subsequently with Abeta (1-40 aa, 10 ng/μL). Secondly, monocyte from healthy controls (NC) and patients with neurodegenerative diseases (AD) were isolated. In both these cases, the cells were lysed and IP LC-MS was performed.
In FIG. 1, each bar in the graph represents the accumulated cleavage sites on each position along the 40 amino acids in Abeta 1-40. Thus the bar contains peptides of various lengths, but with the same start or end amino acid. Three parallels were analysed for each condition/sample group, which refers to the triplicate incubations of each condition, with or without DHA.
Monocytic THP-1 cells were used as a model system, and IP LC-MS as analytical approach to investigate the effect of DHA on monocytic Abeta-40 processing.
A THP-1 cell line culture was matured and differentiated, split to be control and stimulated parallels and this was replicated to be performed a total of 7 times (controls n=7; DHA stimulated n=7). Test cells were incubated with DHA overnight, and all samples were incubated with Abeta-40 for 1 to 2 hours. The cells were lysed by freeze-thaw cycles prior to immunoprecipitation performed with two commercial and one in-house antibody. […]

CHRFAM7A [5] = experiment: Western blot of CHRFAM7A in differentiated THP-1 cells; conditions: FIG. 5
From the text: as §1

[6] = stimulus as labelled, nothing else added, 100 μM DHA, 10 μM PNU-120596, 40 μM Galanthamine hydrobromide, 10 ng/ul Aβ 1-40
[7] = co-stimulation with DHA and Aβ1-40 peptide, compared with DHA alone
[8] = stimulus as labelled plus Amyloid β 1-40 10 ng/ul

Compound: Ab1-42: the conventional amyloid beta peptide containing 42 amino acids
- ~56 kDa Band signal intensity (CHRNA7 [1]; Exp 1, Ab1-42 only, 2.5 ng/ul, 18 hours): 1.7E+06
- ~56 kDa Band signal intensity (CHRNA7 [1]; Exp 2, Ab1-42 only, 2.5 ng/ul, 18 hours): 2.1E+06
- CHRNA7 (56 kDa protein) expression, conclusion in words (CHRNA7 [1]): lower expression

Compound: Amyloid 13: the conventional amyloid beta peptide containing 40 amino acids
- CHRNA7 ("N") transcription relative to TPA-treated unstimulated condition (CHRNA7 [2]; [6]): reduced
- CHRFAM7A ("M") transcription relative to TPA-treated unstimulated condition (CHRFAM7A [3]; [6]): reduced

Compound: CC/C=C\C/C=C\C/C=C\C/C=C\C/C=C\C/C=C\CCC(=O)O [DHA, (4Z, 7Z, 10Z, 13Z, 16Z, 19Z)-4,7, 10, 13, 16, 19-docosahexaenoic acid]
- CHRNA7 expression (Western blot) (CHRNA7 [4]): more pronounced
- CHRNA7 transcription (quantitative PCR) (CHRNA7 [2]; DHA alone): increase
- CHRNA7 transcription (quantitative PCR) (CHRNA7 [2]; [7]): more pronounced
- N/M ratio (CHRNA7/CHRFAM7A transcription) (CHRNA7 [2]; [8]): increased; also recorded: higher
- CHRNA7 ("N") transcription relative to TPA-treated unstimulated condition (CHRNA7 [2]; [8]): unaltered; also recorded: increases
- N/M ratio (CHRNA7/CHRFAM7A transcription) (CHRNA7 [2]; stimulus as labelled, no Amyloid β added): increased
- CHRNA7 ("N") transcription relative to TPA-treated unstimulated condition (CHRNA7 [2]; [6]): stable
- Abeta cut pattern (enzymatic activities), DHA versus no DHA (THP-1 cells; DHA 1 μM, then Abeta 1-40 10 ng/μL, FIG. 1): differing enzymatic activities
- average ratio of catabolic peptides in DHA versus control samples (THP-1 cells; DHA overnight, then Abeta-40 for 1 to 2 hours, controls n=7, DHA stimulated n=7, semi-quantitative): 1.3 (12% RSD)
- CHRFAM7A transcription (quantitative PCR) (CHRFAM7A [3]; DHA alone): decrease
- CHRFAM7A transcription (quantitative PCR) (CHRFAM7A [3]; [7]): more pronounced
- CHRFAM7A ("M") transcription relative to TPA-treated unstimulated condition (CHRFAM7A [3]; [8]): reduces
- CHRFAM7A ("M") transcription relative to TPA-treated unstimulated condition (CHRFAM7A [3]; [6]): reduced
- CHRFAM7A expression (Western blot) (CHRFAM7A [5]; DHA alone): decrease
- CHRFAM7A expression (Western blot) (CHRFAM7A [5]; [7]): more pronounced
- ~56 kDa Band signal intensity (CHRNA7 [1]; Exp 1, 100 uM Dha alone, TPA differentiated THP-1, 18 hours): 3.5E+06
- ~56 kDa Band signal intensity (CHRNA7 [1]; Exp 1, Ab1-42 (2.5 ng/ul) + 100 uM Dha, 18 hours): 3.0E+06
- ~56 kDa Band signal intensity (CHRNA7 [1]; Exp 2, Ab1-42 (2.5 ng/ul) + 10 uM Dha, 18 hours): 2.6E+06
- ~56 kDa Band signal intensity (CHRNA7 [1]; Exp 2, Ab1-42 (2.5 ng/ul) + 100 uM Dha, 18 hours): 2.7E+06
- CHRNA7 expression (Western blot) (CHRNA7 [1]; FIG. 5, DHA alone): increase
- CHRNA7 (56 kDa protein) expression, conclusion in words (CHRNA7 [1]): upregulation

Compound: COc1cc(OC)c(NC(=O)Nc2cc(C)on2)cc1Cl [PNU-120596]
- CHRNA7 ("N") transcription relative to TPA-treated unstimulated condition (CHRNA7 [2]; [6]): smaller changes
- CHRFAM7A ("M") transcription relative to TPA-treated unstimulated condition (CHRFAM7A [3]; [6]): smaller changes

Source: patent publication US20220175710A1, “COMBINATION THERAPY” (Akershus Universitetssykehus HF, priority 2019, published 2022)
